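Following 48 hours of exposure in 96-well plates, responses at five concentrations were used to interpolate endpoints linearly. GI50 = concentration required for 50% inhibition of growth.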 The source made the active and inactive calls. Rule as the data show it: active = GI50 up to about 1.1 µM and inactive = higher.
Key:
Assay in all cases: DTP human tumour cell line panel, 48 h
786-0 = tested on: 786-0
A549 = tested on: A549
CAKI-1 = tested on: CAKI-1
CCRF-CEM = tested on: CCRF-CEM
COLO 205 = tested on: COLO 205
DU-145 = tested on: DU-145
EKVX = tested on: EKVX
HCC 2998 = tested on: HCC 2998
HCT-15 = tested on: HCT-15
HL-60 = tested on: HL-60
HOP-62 = tested on: HOP-62
HT-29 = tested on: HT-29
IGROV-1 = tested on: IGROV-1
K562 = tested on: K562
KM12 = tested on: KM12
LOX IMVI = tested on: LOX IMVI
M14 = tested on: M14
MCF7 = tested on: MCF7
MDA-MB-231 = tested on: MDA-MB-231
MDA-N = tested on: MDA-N
MOLT-4 = tested on: MOLT-4
Malme-3M = tested on: Malme-3M
NCI-H23 = tested on: NCI-H23
OVCAR-8 = tested on: OVCAR-8
PC-3 = tested on: PC-3
RPMI-8226 = tested on: RPMI-8226
RXF 393 = tested on: RXF 393
SF-268 = tested on: SF-268
SK-MEL-28 = tested on: SK-MEL-28
SK-MEL-5 = tested on: SK-MEL-5
SK-OV-3 = tested on: SK-OV-3
SN12C = tested on: SN12C
SNB-75 = tested on: SNB-75
SW-620 = tested on: SW-620
T47D = tested on: T47D
TK-10 = tested on: TK-10
UACC-257 = tested on: UACC-257
UACC-62 = tested on: UACC-62
A498 = tested on: A498
ACHN = tested on: ACHN
HCT-116 = tested on: HCT-116
Hs-578T = tested on: Hs-578T
MDA-MB-435 = tested on: MDA-MB-435
NCI-H226 = tested on: NCI-H226
NCI-H460 = tested on: NCI-H460
NCI-H522 = tested on: NCI-H522
NCI/ADR-RES = tested on: NCI/ADR-RES
OVCAR-3 = tested on: OVCAR-3
OVCAR-4 = tested on: OVCAR-4
SF-295 = tested on: SF-295
SF-539 = tested on: SF-539
SK-MEL-2 = tested on: SK-MEL-2
SNB-19 = tested on: SNB-19
U-251 = tested on: U-251
UO-31 = tested on: UO-31
HOP-92 = tested on: HOP-92
OVCAR-5 = tested on: OVCAR-5
SR = tested on: SR

CCN(CC)CCC/N=c1\c2cc(OC)ccc2[nH]c2c([N+](=O)[O-])ccc(NCCCN(CC)CC)c12
GI50 (786-0): 1.45 µM (inactive)
GI50 (A549): 1.78 µM (inactive)
GI50 (CAKI-1): 9.66 µM (inactive)
GI50 (CCRF-CEM): 0.479 µM (active)
GI50 (COLO 205): 5.13 µM (inactive)
GI50 (DU-145): 5.13 µM (inactive)
GI50 (EKVX): 3.97 µM (inactive)
GI50 (HCC 2998): 1.49 µM (inactive)
GI50 (HCT-15): 1.43 µM
GI50 (HL-60): 0.3 µM (active)
GI50 (HOP-62): 4.47 µM (inactive)
GI50 (HT-29): 1.6 µM (inactive)
GI50 (IGROV-1): 3.42 µM (inactive)
GI50 (K562): 1.77 µM (inactive)
GI50 (KM12): 1.52 µM (inactive)
GI50 (LOX IMVI): 1.34 µM (inactive)
GI50 (M14): > 10 µM (inactive)
GI50 (MCF7): 1.54 µM (inactive)
GI50 (MDA-MB-231): 1.49 µM (inactive)
GI50 (MDA-N): 5.77 µM (inactive)
GI50 (MOLT-4): 0.484 µM (active)
GI50 (Malme-3M): > 10 µM (inactive)
GI50 (NCI-H23): 2.26 µM (inactive)
GI50 (OVCAR-8): 1.03 µM (active)
GI50 (PC-3): 1.47 µM (inactive)
GI50 (RPMI-8226): 1.72 µM (inactive)
GI50 (RXF 393): 1.95 µM (inactive)
GI50 (SF-268): 2.87 µM (inactive)
GI50 (SK-MEL-28): > 10 µM (inactive)
GI50 (SK-MEL-5): 9.42 µM (inactive)
GI50 (SK-OV-3): 3.08 µM (inactive)
GI50 (SN12C): 2.04 µM (inactive)
GI50 (SNB-75): > 10 µM (inactive)
GI50 (SW-620): 1.69 µM (inactive)
GI50 (T47D): > 10 µM (inactive)
GI50 (TK-10): 8.24 µM (inactive)
GI50 (UACC-257): > 10 µM (inactive)
GI50 (UACC-62): > 10 µM (inactive)

Cc1nnc(Nc2ccc(Cl)cc2)o1
GI50 (786-0): > 10 µM (inactive)
GI50 (A498): > 10 µM (inactive)
GI50 (A549): > 10 µM (inactive)
GI50 (ACHN): > 10 µM (inactive)
GI50 (CAKI-1): > 10 µM (inactive)
GI50 (CCRF-CEM): > 10 µM (inactive)
GI50 (COLO 205): > 10 µM (inactive)
GI50 (DU-145): > 10 µM (inactive)
GI50 (EKVX): > 10 µM (inactive)
GI50 (HCC 2998): > 10 µM (inactive)
GI50 (HCT-116): > 10 µM (inactive)
GI50 (HCT-15): > 10 µM
GI50 (HL-60): > 10 µM (inactive)
GI50 (HOP-62): > 10 µM (inactive)
GI50 (HT-29): > 10 µM (inactive)
GI50 (Hs-578T): > 10 µM (inactive)
GI50 (IGROV-1): > 10 µM (inactive)
GI50 (K562): > 10 µM (inactive)
GI50 (KM12): > 10 µM (inactive)
GI50 (LOX IMVI): > 10 µM (inactive)
GI50 (M14): > 10 µM (inactive)
GI50 (MCF7): > 10 µM (inactive)
GI50 (MDA-MB-231): > 10 µM (inactive)
GI50 (MDA-MB-435): > 10 µM (inactive)
GI50 (MDA-N): > 10 µM (inactive)
GI50 (Malme-3M): > 10 µM (inactive)
GI50 (NCI-H226): > 10 µM (inactive)
GI50 (NCI-H23): > 10 µM (inactive)
GI50 (NCI-H460): > 10 µM (inactive)
GI50 (NCI-H522): > 10 µM (inactive)
GI50 (NCI/ADR-RES): > 10 µM (inactive)
GI50 (OVCAR-3): > 10 µM (inactive)
GI50 (OVCAR-4): > 10 µM (inactive)
GI50 (OVCAR-8): > 10 µM (inactive)
GI50 (PC-3): > 10 µM (inactive)
GI50 (RXF 393): > 10 µM (inactive)
GI50 (SF-268): > 10 µM (inactive)
GI50 (SF-295): > 10 µM (inactive)
GI50 (SF-539): > 10 µM (inactive)
GI50 (SK-MEL-28): > 10 µM (inactive)
GI50 (SK-MEL-2): > 10 µM (inactive)
GI50 (SK-MEL-5): > 10 µM (inactive)
GI50 (SK-OV-3): > 10 µM (inactive)
GI50 (SN12C): > 10 µM (inactive)
GI50 (SNB-19): > 10 µM (inactive)
GI50 (SNB-75): > 10 µM (inactive)
GI50 (SW-620): > 10 µM (inactive)
GI50 (T47D): > 10 µM (inactive)
GI50 (TK-10): > 10 µM (inactive)
GI50 (U-251): > 10 µM (inactive)
GI50 (UACC-257): > 10 µM (inactive)
GI50 (UACC-62): > 10 µM (inactive)
GI50 (UO-31): > 10 µM (inactive)

COc1ccc(/C=C2\N=C3NC(=O)C(N4CCCCC4)=C(N)N3C2=O)cc1
GI50 (786-0): > 100 µM (inactive)
GI50 (A498): > 100 µM (inactive)
GI50 (A549): > 100 µM (inactive)
GI50 (ACHN): 70.6 µM (inactive)
GI50 (CAKI-1): > 100 µM (inactive)
GI50 (CCRF-CEM): > 100 µM (inactive)
GI50 (COLO 205): > 100 µM (inactive)
GI50 (DU-145): > 100 µM (inactive)
GI50 (EKVX): > 100 µM (inactive)
GI50 (HCC 2998): > 100 µM (inactive)
GI50 (HCT-116): > 100 µM (inactive)
GI50 (HCT-15): > 100 µM
GI50 (HL-60): 25.9 µM (inactive)
GI50 (HOP-92): > 100 µM (inactive)
GI50 (HT-29): > 100 µM (inactive)
GI50 (Hs-578T): 47.5 µM (inactive)
GI50 (IGROV-1): > 100 µM (inactive)
GI50 (K562): 62.4 µM (inactive)
GI50 (KM12): > 100 µM (inactive)
GI50 (LOX IMVI): > 100 µM (inactive)
GI50 (M14): > 100 µM (inactive)
GI50 (MCF7): > 100 µM (inactive)
GI50 (MDA-MB-231): > 100 µM (inactive)
GI50 (MDA-MB-435): > 100 µM (inactive)
GI50 (MDA-N): > 100 µM (inactive)
GI50 (MOLT-4): > 100 µM (inactive)
GI50 (Malme-3M): > 100 µM (inactive)
GI50 (NCI-H226): > 100 µM (inactive)
GI50 (NCI-H23): > 100 µM (inactive)
GI50 (NCI-H522): > 100 µM (inactive)
GI50 (NCI/ADR-RES): > 100 µM (inactive)
GI50 (OVCAR-4): > 100 µM (inactive)
GI50 (OVCAR-5): > 100 µM (inactive)
GI50 (OVCAR-8): > 100 µM (inactive)
GI50 (RPMI-8226): > 100 µM (inactive)
GI50 (RXF 393): > 100 µM (inactive)
GI50 (SF-268): > 100 µM (inactive)
GI50 (SF-295): 73.6 µM (inactive)
GI50 (SF-539): > 100 µM (inactive)
GI50 (SK-MEL-28): > 100 µM (inactive)
GI50 (SK-MEL-5): > 100 µM (inactive)
GI50 (SK-OV-3): > 100 µM (inactive)
GI50 (SN12C): > 100 µM (inactive)
GI50 (SNB-19): > 100 µM (inactive)
GI50 (SNB-75): 24.8 µM (inactive)
GI50 (SR): > 100 µM (inactive)
GI50 (SW-620): > 100 µM (inactive)
GI50 (T47D): > 100 µM (inactive)
GI50 (TK-10): 47 µM (inactive)
GI50 (U-251): 52.8 µM (inactive)
GI50 (UACC-257): > 100 µM (inactive)
GI50 (UO-31): > 100 µM (inactive)
